Measured values: patent publication US11952358B2, “Flavan-3-ol analogs and anti-inflammatory activity” (Hong Kong Baptist University, priority 2021, dated 2024)

What was measured:
[1] = system: RAW 264.7 cells; assay: CCK8 cell viability assay; format: cell-based, mouse; details: 100 μM, 24 h
Experimental: (§1) RAW 264.7 cells were plated in a 96-well plate and treated with each compound (0, 25 μM, 50 μM and 100 μM) for 24 h. The viability of cells was tested by CCK8 assay. Data from three times independent experiments were expressed as means±SD. *P<0.05 compared with the control group for compound 3a-3j.
RAW 264.7 cells were plated in a 96-well plate and treated with each compound (0, 25 μM, 50 μM and 100 μM) for 24 h. The viability of cells was tested by CCK8 assay. Data from three times independent experiments were expressed as means±SD. *P<0.05 compared with the control group for compound 3k-3t.
RAW 264.7 cells were plated in a 96-well plate and treated with each compound (0, 25 μM, 50 μM and 100 μM) for 24 h. The viability of cells was tested by CCK8 assay. Data from three times independent experiments were expressed as means±SD. *P<0.05 compared with the control group for compound 3u-3ad.
as §1, with “3ae-3ag′.” for “3a-3j.”
Cell Viability Assay The CCK8 assay was used to evaluate the effect of each flavan-3-ol on the viability of RAW264.7 cells. Cells were plated into 96-well plates at a density of 2×10^5 cells/well in medium and cultured overnight. For formal experiments, cells were treated with different concentrations of flavan-3-ols (25, 50, and 100 μM). After 24 h, 20 μl CCK8 solution (cat #A311-01/02, Vazyme Biotech Co., Ltd., Nanjing, China) was added into the medium and incubated for 45 min. The absorbance was measured at 450 nm.
To evaluate the anti-inflammatory effects of these newly synthesized flavan-3-ols, RAW 264.7 cells (mouse monocyte/macrophage cell) were used as the in vitro model. First, CCK-8 (Cell Counting Kit-8) assay was performed to test the effects of these newly synthesized flavan-3-ols on cell viability (FIG. 9a-d). RAW 264.7 cells were treated with the newly synthesized flavan-3-ols ranging from 25 to 100 μM for 24 h. As shown in […], treatment with each compound at 25 and 50 μM for 24 h had no effect on the cell viability of RAW 264.7 cell. […] Therefore, the final concentration of each compound used in the following experiments were no more than 100 μM, and compound concentrations at 25 and 50 μM were used in the further experiments.

[2] = system: IL-1β; assay: ELISA of IL-1β secretion from LPS-stimulated RAW 264.7 cells; format: cell-based, mouse; details: compound 50 μM 24 h, then LPS 1 μg/mL 2 h (FIG. 8)
Experimental: RAW 264.7 cells were pretreated with each compound (50 μM) for 24 h followed by LPS (1 μg/mL) stimulation for another 2 h. The concentrations of IL-1β in RAW 264.7 cell culture supernatants were measured by ELISA kits and the inhibition rate of compound on the secretion of each pro-inflammatory cytokine was calculated. Data from three independent experiments were expressed as means±SD. *P<0.05, **P<0.01 compared with LPS-stimulated group.
Cell culture The RAW 264.7 cell line was purchased from the Cell Bank of Shanghai Institute of Biochemistry & Cell Biology at the Chinese Academy of Sciences (Shanghai, China) and cultured in DMEM supplemented with 10% (v/v) fetal bovine serum (FBS), 100 U/ml penicillin and 100 […], in a stable environment with 5% CO2 at 37° C. Before used in the following in vitro experiments, RAW 264.7 cells were pretreated with synthesized flavan-3-ol (25, 50 μM) for 24 h followed by LPS (1 μg/mL) stimulation for another 2 h.
Enzyme-Linked Immunosorbent Assay (ELISA) RAW 264.7 cells were treated with these synthesized flavan-3-ols (25, 50 μM) for 24 h followed by LPS (1 μg/mL) stimulation for another 2 h and the culture supernatant was collected. The concentrations of IL-1β, IL-6 and TNF-α in the culture supernatant of RAW 264.7 cells were determined according to the manufacturer's instructions of the Duo-set enzyme linked immune sorbent assay kits, purchased from R&D Systems Co. Ltd. (Minneapolis, MN, USA).
The increased pro-inflammatory cytokines production in RAW 264.7 cells has been reported to play an influential role in the inflammation response. To evaluate the anti-inflammatory effects of these flavan-3-ols in vitro, ELISA kits were employed to investigate their effects on the LPS (lipopolysaccharide)-induced pro-inflammatory cytokines production of RAW 264.7 cells. After treating with the flavan-3-ols (25 and 50 μM) and stimulated by LPS, the levels of three main pro-inflammation cytokines including IL-1β ([…]), IL-6 (interleukin-6), and TNF-α (tumor necrosis factor-α) in culture supernatant from RAW 264.7 cells were measured by ELISA kits, and then the inhibition rates of the flavan-3-ols on the secretion of each pro-inflammatory cytokine were calculated by the formula shown as follows.
[formula] In this formula, “L” refers to “the pro-inflammatory cytokine level in cell culture supernatant of LPS-induced group (L)” and “Lc” refers to “the pro-inflammatory cytokine level in cell culture supernatant of compound-treated group (Lc)”. Using this calculation, the reduced levels of pro-inflammation cytokines in the compound treated group would give higher values, which reflect higher inhibition rates.
FIG. 4a-c show the effect of flavan-3-ols on pro-inflammatory cytokine secretion in vitro. RAW 264.7 cells were pretreated with each compound (25, 50 μM) for 24 h followed by LPS (1 μg/mL) stimulation for another 2 h. The concentrations of IL-1β, IL-6, TNF-α in RAW 264.7 cell culture supernatants were measured by ELISA kits and the inhibition rate of compound on the secretion of each pro-inflammatory cytokine was calculated.

[3] = system: LPS-stimulated RAW 264.7 cells; assay: RNA-sequencing analysis with GO and KEGG enrichment; format: cell-based, mouse; details: for inflammation-related genes downregulated: KEGG-classified inflammation-related genes
Experimental: RNA-sequencing analysis RAW 264.7 cells were treated with each flavan-3-ol (25, 50 μM) for 24 h followed by LPS (1 μg/mL) stimulation for another 2 h. Cells were collected and then directly prepared for cDNAs amplification and RNA-Seq library construction. Total RNA was isolated with TRIzol reagent from each group. A complementary DNA library was prepared and sequencing was performed according to the Illumina standard protocol developed by Suzhou GENEWIZ Biological Technology Co., Ltd. (https://www.genewiz.com). […] After filtering, reference genome and gene model annotation files were downloaded from a genome website browser (NCBI/UCSC/Ensembl). Indexes of the reference genome were built using Bowtie v2.0.6 and paired-end clean reads were aligned to the reference genome using TopHat v2.0.9. Bowtie was used for a BWT (Burrows-Wheeler Transformer) algorithm for mapping reads to the genome and Tophat can generate a database of splice junctions based on the gene model annotation file and thus achieve a better mapping result than other non-splice mapping tools. For the quantification of gene expression level, HTSeq V0.6.1 was used to count the read numbers mapped for each gene. The RPKM of each gene was calculated based on the gene read counts mapped to this gene. A differential expression analysis was performed using the DESeq R package (1.10.1). For clustering, the inventors clustered different samples to see the correlation using hierarchical clustering distance method with the function of heatmap, SOM (Self-organization mapping) and k means using silhouette coefficient to adapt the optimal classification with default parameter in R. The complete RNA-seq datasets in this manuscript captioned has been deposited at GEO database (http://www.ncbi.nlm.nih.gov/geo/) under accession ID GSE181052.
Gene ontology (GO) and KEGG enrichment analysis GO enrichment analysis of differentially expressed genes was implemented by the GOseq R Package, in which gene length bias was corrected. GO analysis was performed with the DAVID online tool (https://david.ncifcrf.gov/). Top GO categories were selected according to the P-values. Pathways of differentially expressed genes were analyzed by the KEGG database (http://www.kegg.jp/kegg/). The inventors used KOBAS software to test the statistical enrichment of differential expression genes in KEGG pathways.
RNA-seq analysis of downstream genes regulated by flavan-3-ols. […] RNA-seq analysis was performed to further study the effects of compounds 3m, 3o, 3p, 3ae and 3ag on gene transcriptional pathways related to inflammation. RAW 264.7 cells were used in the RNA-seq analysis, in which cells were pretreated with each compound (50 μM) for 24 h followed by LPS (1 μg/mL) stimulation for another 2 h. […] Next, the inventors focused on genes related to inflammatory reactions and inflammation-related diseases (inflammation-related genes) based on the gene and pathway classification of Kyoto Encyclopedia of Genes and Genomes (KEGG database).
To further analyze the functional distribution of differentially-expressed genes in relation to different biological processes, cellular components and molecular functions, gene ontology (GO) enrichment analysis was performed. The histogram of GO enrichment of differentially-expressed genes was presented.
Furthermore, to determine the biochemical metabolic pathways and signal transduction pathways involved in differentially expressed genes regulated by compound 3ag, KEGG pathway analysis was then performed.

[4] = 50 μM, vs LPS-stimulated group, of a total of 1915 genes

Row | SMILES | melting point | effect on cell viability [1] | inhibition rate of IL-1β secretion compared with enantiomer and racemic form [2] | inflammation-related genes downregulated ([3]; 50 μM, vs LPS-stimulated group) | other results
1 | O[C@H]1Cc2cc(Cl)cc(Cl)c2O[C@@H]1c1ccccc1 [3ag, (2R,3S)-6,8-dichloro-2-phenylchroman-3-ol] | 126 to 127 °C |  | higher inhibition rates than their enantiomers | 40 genes | genes differentially regulated ([3]; 50 μM 24 h, then LPS 1 μg/mL 2 h, vs untreated LPS-stimulated group): 1098 genes; genes downregulated ([3]; 50 μM, vs LPS-stimulated group): 954 genes; genes upregulated ([3]; 50 μM, vs LPS-stimulated group): 144 genes; genes downregulated, share of genes expressed [3, 4]: 49.8%; genes upregulated, share of genes expressed [3, 4]: 7.5%; GO enrichment of downregulated genes ([3]; vs LPS-induced group (FIG. 6)): associated with inflammatory response (GO: 0006954) and cellular response to lipopolysaccharide (GO: 0071222); KEGG pathways of downregulated genes ([3]; vs LPS-induced group (FIG. 7a-b)): IL-17 signaling pathways, PI3K-Akt signaling pathway and TNF signaling pathway
2 | O[C@H]1Cc2ccccc2O[C@@H]1c1ccc2ccccc2c1 [3m, (2R,3S)-2-(naphthalen-2-yl)chroman-3-ol] | 141 to 142 °C |  | higher inhibition rates than their enantiomers | downregulated parts of inflammation-related genes | 
3 | O[C@H]1Cc2c(F)cc(F)cc2O[C@@H]1c1ccc(F)c(F)c1 [3ai, (2R,3S)-2-(3,4-difluorophenyl)-5,7-difluorochroman-3-ol] |  | reduced viability |  |  | 
4 | O[C@H]1Cc2cc(Cl)ccc2O[C@@H]1c1ccccc1 [3ae, (2R,3S)-6-chloro-2-phenylchroman-3-ol] | 130 to 131 °C |  | higher inhibition rates than their enantiomers | downregulated parts of inflammation-related genes | 

Second part, led by results:

Row | melting point | SMILES | effect on cell viability [1] | inhibition rate of IL-1β secretion compared with enantiomer and racemic form [2] | inflammation-related genes downregulated ([3]; 50 μM, vs LPS-stimulated group) | other results
5 | 94 to 95 °C | O[C@H]1Cc2ccccc2O[C@@H]1c1cccs1 [3n, (2S,3S)-2-(thiophen-2-yl)chroman-3-ol] | reduced viability |  |  | 
6 | 110 to 111 °C | O[C@H]1Cc2cc(F)ccc2O[C@@H]1c1ccccc1 [3ad, (2R,3S)-6-fluoro-2-phenylchroman-3-ol] | reduced viability |  |  | 
7 | 114 to 115 °C | O[C@H]1Cc2ccccc2O[C@@H]1c1ccc(C(F)(F)F)cc1 [3i, (2R,3S)-2-(4-(trifluoromethyl)phenyl)chroman-3-ol] | reduced viability |  |  | 
